Reference: ChEMBL document CHEMBL4507279, “Data for DCP probe BI-9627” (2021)

Tests used:
[1] = target: Focal adhesion kinase 1 (Homo sapiens) (UniProt Q05397); settings: Compound concentration 1000.0 nM
[2] = target: Cyclin-dependent kinase 15 (Homo sapiens) (UniProt Q96Q40); settings: Compound concentration 1000.0 nM
[3] = target: Mu-type opioid receptor (Homo sapiens) (UniProt P35372); settings: Compound concentration 10.0 uM
[4] = target: NT-3 growth factor receptor (Homo sapiens) (UniProt Q16288); settings: Compound concentration 1000.0 nM
[5] = target: Transient receptor potential cation channel subfamily M member 6 (Homo sapiens) (UniProt Q9BX84); settings: Compound concentration 1000.0 nM
[6] = target: Activin receptor type-1-like (Homo sapiens) (UniProt P37023); settings: Compound concentration 1000.0 nM
[7] = target: Serine/threonine-protein kinase MAK (Homo sapiens) (UniProt P20794); settings: Compound concentration 1000.0 nM
[8] = target: Macrophage colony-stimulating factor 1 receptor (Homo sapiens) (UniProt P07333); settings: Compound concentration 1000.0 nM
[9] = target: Serine/threonine-protein kinase 35 (Homo sapiens) (UniProt Q8TDR2); settings: Compound concentration 1000.0 nM
[10] = target: Serine/threonine-protein kinase PRP4 homolog (Homo sapiens) (UniProt Q13523); settings: Compound concentration 1000.0 nM
[11] = target: Serine/threonine-protein kinase D2 (Homo sapiens) (UniProt Q9BZL6); settings: Compound concentration 1000.0 nM
[12] = target: Homeodomain-interacting protein kinase 1 (Homo sapiens) (UniProt Q86Z02); settings: Compound concentration 1000.0 nM
[13] = target: Serine/threonine-protein kinase mTOR (Homo sapiens) (UniProt P42345); settings: Compound concentration 1000.0 nM
[14] = target: NUAK family SNF1-like kinase 1 (Homo sapiens) (UniProt O60285); settings: Compound concentration 1000.0 nM
[15] = target: cGMP-dependent protein kinase 2 (Homo sapiens) (UniProt Q13237); settings: Compound concentration 1000.0 nM
[16] = target: Serine/threonine-protein kinase Nek11 (Homo sapiens) (UniProt Q8NG66); settings: Compound concentration 1000.0 nM
[17] = target: Testis-specific serine/threonine-protein kinase 1 (Homo sapiens) (UniProt Q9BXA7); settings: Compound concentration 1000.0 nM
[18] = target: Mitogen-activated protein kinase kinase kinase 9 (Homo sapiens) (UniProt P80192); settings: Compound concentration 1000.0 nM
[19] = target: Mitogen-activated protein kinase kinase kinase 20 (Homo sapiens) (UniProt Q9NYL2); settings: Compound concentration 1000.0 nM
[20] = target: Calcium/calmodulin-dependent protein kinase type 1D (Homo sapiens) (UniProt Q8IU85); settings: Compound concentration 1000.0 nM
[21] = target: Activin receptor type-2B (Homo sapiens) (UniProt Q13705); settings: Compound concentration 1000.0 nM
[22] = target: cAMP-dependent protein kinase catalytic subunit alpha (Homo sapiens) (UniProt P17612); settings: Compound concentration 1000.0 nM
[23] = system: Mast/stem cell growth factor receptor Kit (Homo sapiens), P10721 [V559D]; settings: Compound concentration 1000.0 nM
[24] = target: Serine/threonine-protein kinase 4 (Homo sapiens) (UniProt Q13043); settings: Compound concentration 1000.0 nM
[25] = target: Muscarinic acetylcholine receptor M4 (Homo sapiens) (UniProt P08173); settings: Compound concentration 10.0 uM
[26] = target: Serine/threonine-protein kinase D1 (Homo sapiens) (UniProt Q15139); settings: Compound concentration 1000.0 nM
[27] = system: Receptor-type tyrosine-protein kinase FLT3 (Homo sapiens), P36888 [K663Q]; settings: Compound concentration 1000.0 nM
[28] = target: Serine/threonine-protein kinase 25 (Homo sapiens) (UniProt O00506); settings: Compound concentration 1000.0 nM
[29] = target: Ephrin type-B receptor 1 (Homo sapiens) (UniProt P54762); settings: Compound concentration 1000.0 nM
[30] = system: Epidermal growth factor receptor (Homo sapiens), P00533 [UNDEFINED MUTATION]; settings: Compound concentration 1000.0 nM
[31] = target: T1, D(4) dopamine receptor (Homo sapiens) (UniProt P21917); settings: Compound concentration 10.0 uM
T1 sequence (whole entry): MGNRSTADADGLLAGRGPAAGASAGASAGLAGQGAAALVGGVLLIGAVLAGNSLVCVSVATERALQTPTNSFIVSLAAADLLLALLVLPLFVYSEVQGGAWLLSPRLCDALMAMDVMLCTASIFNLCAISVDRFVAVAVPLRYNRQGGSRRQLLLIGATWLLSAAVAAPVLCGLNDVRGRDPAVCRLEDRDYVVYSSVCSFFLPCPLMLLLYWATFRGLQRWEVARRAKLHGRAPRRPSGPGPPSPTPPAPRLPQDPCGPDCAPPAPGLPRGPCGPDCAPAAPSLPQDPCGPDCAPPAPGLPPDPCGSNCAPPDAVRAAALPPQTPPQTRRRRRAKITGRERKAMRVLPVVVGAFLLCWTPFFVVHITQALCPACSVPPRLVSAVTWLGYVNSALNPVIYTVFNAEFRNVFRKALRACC

[32] = system: Receptor-type tyrosine-protein kinase FLT3 (Homo sapiens), P36888 [D835Y]; settings: Compound concentration 1000.0 nM
[33] = target: RAC-alpha serine/threonine-protein kinase (Homo sapiens) (UniProt P31749); settings: Compound concentration 1000.0 nM
[34] = target: Mitogen-activated protein kinase kinase kinase 10 (Homo sapiens) (UniProt Q02779); settings: Compound concentration 1000.0 nM
[35] = target: Serine/threonine-protein kinase SBK1 (Homo sapiens) (UniProt Q52WX2); settings: Compound concentration 1000.0 nM
[36] = target: Vascular endothelial growth factor receptor 3 (Homo sapiens) (UniProt P35916); settings: Compound concentration 1000.0 nM
[37] = target: Serine/threonine-protein kinase pim-2 (Homo sapiens) (UniProt Q9P1W9); settings: Compound concentration 1000.0 nM
[38] = target: Epidermal growth factor receptor (Homo sapiens) (UniProt P00533); settings: Compound concentration 1000.0 nM
[39] = target: Vascular endothelial growth factor receptor 2 (Homo sapiens) (UniProt P35968); settings: Compound concentration 1000.0 nM

Chain of Mast/stem cell growth factor receptor Kit (Homo sapiens), P10721 [V559D] (P10721 whole entry V559D): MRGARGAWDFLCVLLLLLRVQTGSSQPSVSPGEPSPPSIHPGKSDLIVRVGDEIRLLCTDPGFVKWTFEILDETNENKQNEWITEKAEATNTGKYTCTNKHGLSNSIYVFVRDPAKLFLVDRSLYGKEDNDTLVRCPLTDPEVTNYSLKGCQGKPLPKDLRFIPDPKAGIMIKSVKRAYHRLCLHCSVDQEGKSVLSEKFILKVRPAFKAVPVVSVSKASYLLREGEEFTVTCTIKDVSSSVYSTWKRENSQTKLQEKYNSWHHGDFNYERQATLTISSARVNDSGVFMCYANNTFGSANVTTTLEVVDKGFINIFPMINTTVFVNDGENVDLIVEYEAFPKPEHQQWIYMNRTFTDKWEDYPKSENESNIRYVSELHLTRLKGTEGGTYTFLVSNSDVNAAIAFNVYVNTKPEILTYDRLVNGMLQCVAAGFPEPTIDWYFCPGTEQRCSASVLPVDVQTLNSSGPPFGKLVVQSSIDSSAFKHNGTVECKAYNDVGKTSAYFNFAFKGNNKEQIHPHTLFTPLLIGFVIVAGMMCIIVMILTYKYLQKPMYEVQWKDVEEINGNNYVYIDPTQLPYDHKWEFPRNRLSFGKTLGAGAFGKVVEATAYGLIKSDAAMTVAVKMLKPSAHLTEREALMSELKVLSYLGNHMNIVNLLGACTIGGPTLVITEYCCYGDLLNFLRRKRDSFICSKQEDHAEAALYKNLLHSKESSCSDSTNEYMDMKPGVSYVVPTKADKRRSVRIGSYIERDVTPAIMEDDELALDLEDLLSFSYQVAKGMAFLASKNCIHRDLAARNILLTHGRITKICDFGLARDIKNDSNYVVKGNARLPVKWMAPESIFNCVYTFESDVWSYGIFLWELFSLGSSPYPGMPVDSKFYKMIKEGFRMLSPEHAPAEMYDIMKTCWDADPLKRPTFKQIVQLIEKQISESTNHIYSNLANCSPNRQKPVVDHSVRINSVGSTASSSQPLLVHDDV
Chain of Activin receptor type-2B (Homo sapiens) (Q13705 whole entry): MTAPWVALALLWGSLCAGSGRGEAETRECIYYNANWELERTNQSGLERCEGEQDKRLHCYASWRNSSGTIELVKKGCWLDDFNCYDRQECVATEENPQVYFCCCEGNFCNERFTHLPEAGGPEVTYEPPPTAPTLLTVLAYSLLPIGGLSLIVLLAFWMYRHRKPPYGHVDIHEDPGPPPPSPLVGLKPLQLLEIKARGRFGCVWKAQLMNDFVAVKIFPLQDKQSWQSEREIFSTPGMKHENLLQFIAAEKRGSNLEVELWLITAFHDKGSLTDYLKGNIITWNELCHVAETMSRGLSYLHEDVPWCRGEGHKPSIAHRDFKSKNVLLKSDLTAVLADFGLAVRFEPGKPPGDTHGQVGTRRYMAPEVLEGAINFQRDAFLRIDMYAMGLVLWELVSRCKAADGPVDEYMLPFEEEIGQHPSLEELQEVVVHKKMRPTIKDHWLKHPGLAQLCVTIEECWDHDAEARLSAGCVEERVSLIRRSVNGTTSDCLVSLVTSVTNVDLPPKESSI
Chain of Homeodomain-interacting protein kinase 1 (Homo sapiens) (Q86Z02 whole entry, looked up): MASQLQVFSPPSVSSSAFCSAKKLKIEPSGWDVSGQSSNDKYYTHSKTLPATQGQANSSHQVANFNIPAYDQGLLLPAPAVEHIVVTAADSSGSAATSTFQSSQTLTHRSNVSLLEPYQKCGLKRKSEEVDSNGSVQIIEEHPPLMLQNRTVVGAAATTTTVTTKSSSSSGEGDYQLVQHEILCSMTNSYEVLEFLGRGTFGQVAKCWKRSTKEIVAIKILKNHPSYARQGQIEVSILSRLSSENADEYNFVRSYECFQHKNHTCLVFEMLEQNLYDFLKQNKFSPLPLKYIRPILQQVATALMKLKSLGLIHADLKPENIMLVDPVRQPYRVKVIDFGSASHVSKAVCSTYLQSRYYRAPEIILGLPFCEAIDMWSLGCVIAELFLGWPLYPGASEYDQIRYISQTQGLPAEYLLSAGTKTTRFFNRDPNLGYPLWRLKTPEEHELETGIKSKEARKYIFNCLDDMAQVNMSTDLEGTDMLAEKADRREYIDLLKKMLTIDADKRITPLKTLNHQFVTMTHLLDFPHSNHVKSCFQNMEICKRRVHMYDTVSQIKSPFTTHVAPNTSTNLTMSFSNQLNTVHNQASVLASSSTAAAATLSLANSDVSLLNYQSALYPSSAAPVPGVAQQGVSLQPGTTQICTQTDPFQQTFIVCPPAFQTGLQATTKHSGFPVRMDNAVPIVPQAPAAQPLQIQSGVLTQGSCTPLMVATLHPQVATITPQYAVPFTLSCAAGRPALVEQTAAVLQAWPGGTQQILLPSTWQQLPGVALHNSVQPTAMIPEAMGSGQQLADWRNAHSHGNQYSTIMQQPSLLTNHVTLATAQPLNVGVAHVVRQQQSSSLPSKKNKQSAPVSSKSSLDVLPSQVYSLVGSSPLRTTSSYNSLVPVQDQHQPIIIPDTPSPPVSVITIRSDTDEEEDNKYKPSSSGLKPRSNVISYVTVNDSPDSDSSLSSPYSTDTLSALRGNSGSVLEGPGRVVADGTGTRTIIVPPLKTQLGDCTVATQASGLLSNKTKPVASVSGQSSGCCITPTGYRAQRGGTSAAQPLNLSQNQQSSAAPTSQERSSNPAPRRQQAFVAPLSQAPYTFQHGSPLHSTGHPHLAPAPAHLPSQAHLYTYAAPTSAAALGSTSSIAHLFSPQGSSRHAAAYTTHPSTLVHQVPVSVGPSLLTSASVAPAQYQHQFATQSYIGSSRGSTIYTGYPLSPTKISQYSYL
Chain of Transient receptor potential cation channel subfamily M member 6 (Homo sapiens) (Q9BX84 whole entry): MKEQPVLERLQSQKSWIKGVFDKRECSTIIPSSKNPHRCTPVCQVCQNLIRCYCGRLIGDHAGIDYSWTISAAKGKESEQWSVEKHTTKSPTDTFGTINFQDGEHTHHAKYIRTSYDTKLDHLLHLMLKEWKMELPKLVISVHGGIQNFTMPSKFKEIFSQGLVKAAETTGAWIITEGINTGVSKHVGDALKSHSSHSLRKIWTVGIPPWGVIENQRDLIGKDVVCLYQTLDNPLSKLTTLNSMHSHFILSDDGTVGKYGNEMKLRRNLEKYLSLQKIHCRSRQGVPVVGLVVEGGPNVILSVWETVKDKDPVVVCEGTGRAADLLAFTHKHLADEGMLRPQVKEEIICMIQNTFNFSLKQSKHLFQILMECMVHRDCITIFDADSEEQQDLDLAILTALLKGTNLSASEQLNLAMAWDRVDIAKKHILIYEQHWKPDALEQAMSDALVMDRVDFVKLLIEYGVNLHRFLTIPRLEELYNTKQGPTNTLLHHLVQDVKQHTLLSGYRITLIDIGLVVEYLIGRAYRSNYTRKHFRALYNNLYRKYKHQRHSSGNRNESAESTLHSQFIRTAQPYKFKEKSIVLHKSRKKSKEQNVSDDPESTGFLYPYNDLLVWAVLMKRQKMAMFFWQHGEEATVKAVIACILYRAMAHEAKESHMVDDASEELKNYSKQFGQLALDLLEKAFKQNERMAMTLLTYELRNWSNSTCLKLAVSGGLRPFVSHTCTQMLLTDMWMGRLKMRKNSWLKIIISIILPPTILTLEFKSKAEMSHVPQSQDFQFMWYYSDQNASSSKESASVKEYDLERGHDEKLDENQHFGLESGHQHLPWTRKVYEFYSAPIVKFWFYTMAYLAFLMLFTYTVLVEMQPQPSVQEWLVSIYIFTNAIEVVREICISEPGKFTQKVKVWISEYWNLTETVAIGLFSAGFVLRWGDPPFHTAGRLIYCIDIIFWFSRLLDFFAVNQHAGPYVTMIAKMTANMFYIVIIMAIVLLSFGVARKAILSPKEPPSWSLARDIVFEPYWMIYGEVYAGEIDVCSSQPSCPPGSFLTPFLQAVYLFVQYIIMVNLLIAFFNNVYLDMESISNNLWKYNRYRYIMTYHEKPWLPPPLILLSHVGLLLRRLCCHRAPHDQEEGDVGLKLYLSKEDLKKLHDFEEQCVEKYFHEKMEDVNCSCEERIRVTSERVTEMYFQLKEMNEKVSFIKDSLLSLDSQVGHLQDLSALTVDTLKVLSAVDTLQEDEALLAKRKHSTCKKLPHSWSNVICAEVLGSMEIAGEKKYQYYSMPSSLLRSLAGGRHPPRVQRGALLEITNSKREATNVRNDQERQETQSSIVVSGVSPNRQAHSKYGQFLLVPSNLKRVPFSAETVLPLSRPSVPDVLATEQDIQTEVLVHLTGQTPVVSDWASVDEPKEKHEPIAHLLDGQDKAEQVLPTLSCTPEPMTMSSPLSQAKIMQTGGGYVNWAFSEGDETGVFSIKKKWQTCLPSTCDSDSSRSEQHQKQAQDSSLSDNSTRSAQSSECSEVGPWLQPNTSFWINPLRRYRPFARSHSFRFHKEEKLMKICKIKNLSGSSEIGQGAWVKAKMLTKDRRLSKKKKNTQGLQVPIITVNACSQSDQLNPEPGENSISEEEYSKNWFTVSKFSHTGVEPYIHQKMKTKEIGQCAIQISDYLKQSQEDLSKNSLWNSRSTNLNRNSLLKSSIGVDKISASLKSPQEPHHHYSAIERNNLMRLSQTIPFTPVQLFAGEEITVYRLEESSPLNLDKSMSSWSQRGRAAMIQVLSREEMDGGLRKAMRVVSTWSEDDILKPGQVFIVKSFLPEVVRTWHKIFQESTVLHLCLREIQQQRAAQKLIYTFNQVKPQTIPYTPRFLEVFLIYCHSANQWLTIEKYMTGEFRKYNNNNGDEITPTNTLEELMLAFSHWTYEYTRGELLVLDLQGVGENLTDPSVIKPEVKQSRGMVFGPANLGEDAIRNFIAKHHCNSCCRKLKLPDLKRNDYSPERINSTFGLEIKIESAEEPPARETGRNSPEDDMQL
Chain of Mu-type opioid receptor (Homo sapiens) (P35372 whole entry): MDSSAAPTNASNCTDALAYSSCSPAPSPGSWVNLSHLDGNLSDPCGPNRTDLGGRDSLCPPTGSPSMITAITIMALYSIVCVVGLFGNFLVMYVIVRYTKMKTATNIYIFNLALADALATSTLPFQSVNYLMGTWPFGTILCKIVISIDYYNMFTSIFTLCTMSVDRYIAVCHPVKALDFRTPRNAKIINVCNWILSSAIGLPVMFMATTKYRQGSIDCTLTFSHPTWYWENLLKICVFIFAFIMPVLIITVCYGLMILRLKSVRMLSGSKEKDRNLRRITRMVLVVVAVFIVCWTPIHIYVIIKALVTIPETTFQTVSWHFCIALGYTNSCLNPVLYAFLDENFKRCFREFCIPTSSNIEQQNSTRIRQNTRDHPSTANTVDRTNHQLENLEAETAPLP

Compound | residual activity [1] | residual activity [2] | inhibition [3] | residual activity [4] | residual activity [5] | residual activity [6] | residual activity [7] | residual activity [8] | residual activity [9] | residual activity [10] | residual activity [11] | residual activity [12] | residual activity [13] | residual activity [14] | residual activity [15] | residual activity [16] | residual activity [17] | residual activity [18] | residual activity [19] | residual activity [20] | further results
CC(=O)N1CCC(c2ccc(C(=O)NC3=NCCN3)cc2C(F)(F)F)CC1 [BI 0054] | 17% | 100% | -2.53% | 100% | 90% | 100% | 61% | 94% | 100% | 100% | 100% | 91% | 67% | 98% | 100% | 100% | 100% | 100% | 88% | 100% | residual activity [21]: 100%; residual activity [22]: 100%; residual activity [23]: 100%; residual activity [24]: 100%; inhibition [25]: 19.9%; residual activity [26]: 100%; residual activity [27]: 100%; residual activity [28]: 100%; residual activity [29]: 100%; residual activity [30]: 100%; inhibition [31]: -5.64%; residual activity [32]: 98%; residual activity [33]: 100%; residual activity [34]: 100%; residual activity [35]: 97%; residual activity [36]: 98%; residual activity [37]: 100%; residual activity [38]: 100%; residual activity [39]: 80%
CC(=O)N1CCC(c2ccc(C(=O)NC(=N)N)cc2C(F)(F)F)CC1 [BI 9627] | 100% | 100% | 8.98% | 100% | 98% | 100% | 79% | 85% | 100% | 78% | 100% | 81% | 100% | 100% | 100% | 100% | 100% | 100% | 100% | 95% | residual activity [21]: 100%; residual activity [22]: 100%; residual activity [23]: 100%; residual activity [24]: 98%; inhibition [25]: 22.3%; residual activity [26]: 100%; residual activity [27]: 100%; residual activity [28]: 100%; residual activity [29]: 100%; residual activity [30]: 100%; inhibition [31]: -5.7%; residual activity [32]: 100%; residual activity [33]: 100%; residual activity [34]: 95%; residual activity [35]: 100%; residual activity [36]: 89%; residual activity [37]: 100%; residual activity [38]: 100%; residual activity [39]: 93%
